Laboratory results reported in US20240057587A1, “ORGANIC AMMONIUM SALT AND HYDROGEN-BONDING MATERIAL TREATMENT AGENT USING SAME” (MIYOSHI OIL & FAT CO.,LTD., priority 2019, published 2024).

tested on: not listed separately; experiment: Carbon nanotube dispersibility test; type: physicochemical; details: 0.25 g compound, 0.75 g water, 0.025 g carbon nanotubes

SMILES | dispersed state of carbon nanotubes (visual)
CCCC[N+](CCCC)(CCCC)CCCC.[Br-] [Comparative example 12, tetra-n-butylammonium bromide, reference compound] | the carbon nanotubes did not disperse, but precipitated

same assay, conditions: 0.25 g compound, 0.75 g water, 0.025 g carbon nanotubes; visual

SMILES | Carbon nanotube dispersibility
CCC(N)(CO)CO [Working example 27] | ○ ○
NC(CO)CO [Working example 26] | ○
NC(CO)(CO)CO [Working example 28] | ○ ○
NC(CO)(CO)CO [Working example 48] | ○ ○

tested on: not listed separately; experiment: Metal oxide dispersibility test (titanium oxide); type: physicochemical; details: 0.25 g compound, 0.50 g water, 0.10 g titanium oxide (IV)

SMILES | dispersed state of titanium oxide (visual)
CCCC[N+](CCCC)(CCCC)CCCC.[Br-] [Comparative example 12, tetra-n-butylammonium bromide, reference compound] | a low dispersibility was observed as titanium oxide had precipitated

same assay, conditions: 0.25 g compound, 0.50 g water, 0.10 g titanium oxide (IV); visual

SMILES | Titanium oxide dispersibility
NC(CO)(CO)CO [Working example 36] | ○ ○ ○ ○
CCC(N)(CO)CO [Working example 27] | ○ ○
NC(CO)CO [Working example 26] | ○
NC(CO)(CO)CO [Working example 28] | ○ ○ ○ ○
NC(CO)(CO)CO [Working example 48] | ○ ○ ○ ○

tested on: not given; experiment: not given; details: Vali Fast Black 3830 dispersion liquid dried at 50° C. under reduced pressure for three hours, 0.7 g water added, remixed; visual

SMILES | Redispersibility Dye
NC(CO)(CO)CO [Working example 36] | ○ ○ ○ ○
NC(CO)(CO)CO [Working example 28] | ○ ○ ○ ○
NC(CO)(CO)CO [Working example 48] | ○ ○ ○ ○

same assay, conditions: dried Vali Fast Black 3830 dispersion, 0.7 g of water added

SMILES | dispersed state after redispersion (visual)
CCCC[N+](CCCC)(CCCC)CCCC.[Br-] [Comparative example 12, tetra-n-butylammonium bromide, reference compound] | precipitates were observed immediately after performing mixing with the mixer

tested on: not given; experiment: not given; details: dispersion liquid dried at 50° C. under reduced pressure for three hours, 0.50 g water added, remixed; visual

SMILES | Redispersibility Zirconium oxide
NC(CO)(CO)CO [Working example 36] | ○ ○ ○ ○
NC(CO)(CO)CO [Working example 28] | ○ ○ ○ ○
NC(CO)(CO)CO [Working example 48] | ○ ○ ○ ○

same assay, conditions: dried zirconium oxide dispersion, 0.50 g of water added

SMILES | dispersed state after redispersion (visual)
CCCC[N+](CCCC)(CCCC)CCCC.[Br-] [Comparative example 12, tetra-n-butylammonium bromide, reference compound] | precipitates were observed immediately after performing mixing with the mixer

target: T1, urease (Canavalia ensiformis, UniProt P07374); experiment: not given; type: biochemical, sword bean; details: urease; solid sample mixed by mortar; 40° C., 80% RH; after 30 days; 1:1
T1 sequence (P07374 whole entry, looked up): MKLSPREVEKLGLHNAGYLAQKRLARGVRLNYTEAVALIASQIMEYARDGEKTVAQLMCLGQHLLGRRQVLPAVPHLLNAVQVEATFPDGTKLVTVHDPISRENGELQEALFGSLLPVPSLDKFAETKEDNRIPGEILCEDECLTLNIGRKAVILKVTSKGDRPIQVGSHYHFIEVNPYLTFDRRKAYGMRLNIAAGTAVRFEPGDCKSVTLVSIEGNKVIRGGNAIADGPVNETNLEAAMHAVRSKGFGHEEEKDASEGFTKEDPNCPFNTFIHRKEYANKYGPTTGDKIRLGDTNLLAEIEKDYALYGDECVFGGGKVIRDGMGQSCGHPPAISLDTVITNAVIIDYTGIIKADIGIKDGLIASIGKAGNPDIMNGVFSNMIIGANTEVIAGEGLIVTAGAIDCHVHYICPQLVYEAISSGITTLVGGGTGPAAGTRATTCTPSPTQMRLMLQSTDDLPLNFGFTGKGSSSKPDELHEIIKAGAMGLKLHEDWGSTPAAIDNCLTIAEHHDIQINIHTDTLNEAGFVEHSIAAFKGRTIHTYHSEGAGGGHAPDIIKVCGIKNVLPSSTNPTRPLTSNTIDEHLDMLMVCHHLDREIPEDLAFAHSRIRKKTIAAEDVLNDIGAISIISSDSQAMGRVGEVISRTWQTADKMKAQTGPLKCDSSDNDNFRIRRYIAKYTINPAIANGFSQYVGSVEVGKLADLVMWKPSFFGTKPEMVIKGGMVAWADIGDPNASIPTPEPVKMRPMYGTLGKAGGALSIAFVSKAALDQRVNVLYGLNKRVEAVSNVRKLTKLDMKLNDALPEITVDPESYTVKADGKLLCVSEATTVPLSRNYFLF

SMILES | Enzyme activity retention rate (%) (after 30 days) Stabilizer:Enzyme = 1:1, Mixed by mortar
NC(CO)(CO)CO [Working example 36] | 7%
CCC(N)(CO)CO [Working example 27] | 10%
NC(CO)CO [Working example 26] | 13%
CCC(N)(CO)CO [Working example 35] | 0%
NC(CO)(CO)CO [Working example 28] | 12%
NC(CO)(CO)CO [Working example 48] | 9%

same assay, conditions: urease; solid sample, solvent distilled away from dissolution solution; 40° C., 80% RH; after 30 days; 1:1

SMILES | Enzyme activity retention rate (%) (after 30 days) Stabilizer:Enzyme = 1:1, Solvent distilled away from dissolution solution
NC(CO)(CO)CO [Working example 36] | 41%
CCC(N)(CO)CO [Working example 27] | 74%
NC(CO)CO [Working example 26] | 81%
CCC(N)(CO)CO [Working example 35] | 16%
NC(CO)(CO)CO [Working example 28] | 65%
NC(CO)(CO)CO [Working example 48] | 48%

tested on: not given; experiment: not given; details: 0.25 g compound, 0.50 g water, 0.10 g zinc oxide

SMILES | dispersed state of zinc oxide (visual)
CCCC[N+](CCCC)(CCCC)CCCC.[Br-] [Comparative example 12, tetra-n-butylammonium bromide, reference compound] | zinc oxide did not disperse, but immediately precipitated

same assay, conditions: 0.25 g compound, 0.50 g water, 0.10 g zinc oxide; visual

SMILES | Zinc oxide dispersibility
NC(CO)(CO)CO [Working example 36] | ○ ○ ○ ○
NC(CO)(CO)CO [Working example 28] | ○ ○ ○ ○
NC(CO)(CO)CO [Working example 48] | ○ ○ ○ ○

tested on: not given; experiment: not given; details: dispersion liquid dried at 50° C. under reduced pressure for three hours, 0.50 g water added, remixed; visual; remark: another data set of the same source

SMILES | Redispersibility Titanium oxide
NC(CO)(CO)CO [Working example 36] | ○ ○ ○ ○
NC(CO)(CO)CO [Working example 28] | ○ ○ ○ ○
NC(CO)(CO)CO [Working example 48] | ○ ○ ○ ○

same assay, conditions: dried titanium oxide dispersion, 0.50 g of water added

SMILES | dispersed state after redispersion (visual)
CCCC[N+](CCCC)(CCCC)CCCC.[Br-] [Comparative example 12, tetra-n-butylammonium bromide, reference compound] | precipitates were observed immediately after performing mixing with the mixer

target: T1, urease; experiment: not given; type: biochemical, sword bean; details: solid sample, 40° C., 80% RH, after 30 days, Stabilizer:Enzyme = 0.1:1

SMILES | Enzyme activity retention rate(%) (after 30 days) Stabilizer: Enzyme = 0.1:1
NC(CO)(CO)CO [Working example 36] | 27%
CCC(N)(CO)CO [Working example 27] | 8%
NC(CO)CO [Working example 26] | 10%
CCC(N)(CO)CO [Working example 35] | 9%
NC(CO)(CO)CO [Working example 28] | 15%
NC(CO)(CO)CO [Working example 48] | 18%

same assay, conditions: solid sample, 40° C., 80% RH, after 30 days, Stabilizer:Enzyme = 1:1

SMILES | Enzyme activity retention rate(%) (after 30 days) Stabilizer: Enzyme = 1:1
NC(CO)(CO)CO [Working example 36] | 41%
CCC(N)(CO)CO [Working example 27] | 74%
NC(CO)CO [Working example 26] | 81%
CCC(N)(CO)CO [Working example 35] | 16%
NC(CO)(CO)CO [Working example 28] | 65%
NC(CO)(CO)CO [Working example 48] | 48%

same assay, conditions: solid sample, 40° C., 80% RH, after 30 days, Stabilizer:Enzyme = 10:1

SMILES | Enzyme activity retention rate(%) (after 30 days) Stabilizer: Enzyme = 10:1
NC(CO)(CO)CO [Working example 36] | 45%
CCC(N)(CO)CO [Working example 27] | 20%
NC(CO)CO [Working example 26] | 25%
CCC(N)(CO)CO [Working example 35] | 22%
NC(CO)(CO)CO [Working example 28] | 35%
NC(CO)(CO)CO [Working example 48] | 52%

tested on: DNA; experiment: DNA long-term stability, 50% aqueous solution; details: 40° C., 80% RH

SMILES | DNA long-term stability (after 30 days) Stabilizer: DNA = 1:1
CCC(N)(CO)CO [Working example 27] | ○ ○
NC(CO)CO [Working example 26] | ○
CCC(N)(CO)CO [Working example 35] | ○ ○
NC(CO)(CO)CO [Working example 28] | ○ ○
NC(CO)(CO)CO [Working example 48] | ○ ○

target: T2, cytochrome C (Equus caballus, UniProt P00004); experiment: Protein long-term stability, 50% aqueous solution; parameters: species or system Horse; details: cytochrome C in 50 wt % aqueous solution of compound; 40° C.; after 30 days; 1:1
T2 construct: a reagent produced by NACALAI TESQUE, INC; (Horse Heart, molecular weight 12384) was used; purchased NACALAI TESQUE, INC; host or cells: horse heart (tissue origin)
Procedure: At first, changes in amide absorption by IR spectrum were precisely observed, and there were confirmed the higher-order structures of protein (turn, α-helix, random coil, β-sheet). The amide I region (1,600 to 1,700 cm^−1) and the amide II region (1,500 to 1,600 cm^−1) were measured by ATR method using a Fourier transform infrared spectrophotometer (FT/IR-6100 by JASCO Corporation), and peaks were then detected based on a difference(s) between a cytochrome C-free organic ammonium salt sample (blank) and a cytochrome C-containing organic ammonium salt sample (sample).
Further, the activity state of cytochrome C (Fe^2+: reduced form, Fe^3+: oxidized form) was confirmed via absorptions in UV spectrum. The measurement was conducted using an ultraviolet-visible spectrophotometer and a quartz cell having an optical path width of 2 mm, immediately after diluting the cytochrome C-containing organic ammonium salt sample to 1% with a 50 mM phosphate buffer of pH 7.4 (prepared using 50 mM potassium dihydrogen phosphate and 50 mM dipotassium hydrogen phosphate).

T2 sequence (P00004 whole entry): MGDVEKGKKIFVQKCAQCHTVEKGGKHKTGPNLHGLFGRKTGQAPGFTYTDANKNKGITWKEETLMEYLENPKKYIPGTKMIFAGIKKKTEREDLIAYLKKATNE

SMILES | Protein long-term stability (after 30 days) Stabilize:Protein = 1:1
NC(CO)(CO)CO [Working example 36] | ○ ○ ○
CCC(N)(CO)CO [Working example 27] | ○ ○
NC(CO)CO [Working example 26] | ○
NC(CO)(CO)CO [Working example 28] | ○ ○ ○
NC(CO)(CO)CO [Working example 48] | ○

target: T1, urease; experiment: not given; type: biochemical, sword bean; details: urease in 50 wt % aqueous solution of compound; 40° C., 80% RH; after 30 days; Stabilizer:Enzyme = 1:1

SMILES | Enzyme activity retention rate(%) (after 30 days) Stabilizer: Enzyme = 1:1
NC(CO)(CO)CO [Working example 36] | 39%
CCC(N)(CO)CO [Working example 27] | 11%
NC(CO)CO [Working example 26] | 18%
CCC(N)(CO)CO [Working example 35] | 10%
NC(CO)(CO)CO [Working example 28] | 15%
NC(CO)(CO)CO [Working example 48] | 30%

tested on: not listed separately; experiment: Metal oxide dispersibility test (zirconium oxide); type: physicochemical; details: 0.25 g compound, 0.50 g water, 0.10 g zirconium oxide (IV)

SMILES | dispersed state of zirconium oxide (visual)
CCCC[N+](CCCC)(CCCC)CCCC.[Br-] [Comparative example 12, tetra-n-butylammonium bromide, reference compound] | zirconium oxide immediately precipitated, and therefore did not disperse

same assay, conditions: 0.25 g compound, 0.50 g water, 0.10 g zirconium oxide (IV); visual

SMILES | Zirconium oxide dispersibility
NC(CO)(CO)CO [Working example 36] | ○ ○ ○ ○
CCC(N)(CO)CO [Working example 27] | ○ ○
NC(CO)CO [Working example 26] | ○
NC(CO)(CO)CO [Working example 28] | ○ ○ ○ ○
NC(CO)(CO)CO [Working example 48] | ○ ○ ○ ○

tested on: not listed separately; experiment: Organic dye dispersibility test; type: physicochemical; details: 0.2 g compound, 0.7 g water, 0.1 g Vali Fast Black 3830, ultrasonic dispersion

SMILES | mixed and dispersed state of organic dye after 24 hours (visual)
CCCC[N+](CCCC)(CCCC)CCCC.[Br-] [Comparative example 12, tetra-n-butylammonium bromide, reference compound] | the organic dye did not disperse, but precipitated

same assay, conditions: 0.2 g compound, 0.7 g water, 0.1 g Vali Fast Black 3830; ultrasonic dispersion; after 24 hours; visual

SMILES | Dye dispersibility
NC(CO)(CO)CO [Working example 36] | ○ ○ ○ ○
NC(CO)CO [Working example 26] | ○
NC(CO)(CO)CO [Working example 28] | ○ ○ ○ ○
NC(CO)(CO)CO [Working example 48] | ○ ○ ○ ○

target: T2, cytochrome C; experiment: Protein long-term stability (IR and UV spectrum), solid sample; parameters: species or system Horse; details: cytochrome C, solid sample; 40° C., 80% RH; after 30 days; Stabilizer:Protein = 0.1:1

SMILES | Protein long-term stability (after 30 days) Stabilizer: Protein = 0.1:1
NC(CO)(CO)CO [Working example 36] | ◯
CCC(N)(CO)CO [Working example 27] | ◯ ◯
NC(CO)CO [Working example 26] | ◯
NC(CO)(CO)CO [Working example 28] | ◯
NC(CO)(CO)CO [Working example 48] | ◯

same assay, conditions: cytochrome C, solid sample; 40° C., 80% RH; after 30 days; Stabilizer:Protein = 1:1

SMILES | Protein long-term stability (after 30 days) Stabilizer: Protein = 1:1
NC(CO)(CO)CO [Working example 36] | ◯
CCC(N)(CO)CO [Working example 27] | ◯ ◯
NC(CO)CO [Working example 26] | ◯
NC(CO)(CO)CO [Working example 28] | ◯
NC(CO)(CO)CO [Working example 48] | ◯

same assay, conditions: cytochrome C, solid sample; 40° C., 80% RH; after 30 days; Stabilizer:Protein = 10:1

SMILES | Protein long-term stability (after 30 days) Stabilizer: Protein = 10:1
NC(CO)(CO)CO [Working example 36] | ◯
CCC(N)(CO)CO [Working example 27] | ◯ ◯
NC(CO)CO [Working example 26] | ◯
NC(CO)(CO)CO [Working example 28] | ◯
NC(CO)(CO)CO [Working example 48] | ◯

tested on: not given; experiment: not given; details: 0.25 g compound, 0.50 g water, 0.10 g barium titanate

SMILES | dispersed state of barium titanate (visual)
CCCC[N+](CCCC)(CCCC)CCCC.[Br-] [Comparative example 12, tetra-n-butylammonium bromide, reference compound] | barium titanate did not disperse, but immediately precipitated

same assay, conditions: 0.25 g compound, 0.50 g water, 0.10 g barium titanate; visual

SMILES | Barium titanate dispersibility
NC(CO)(CO)CO [Working example 36] | ○ ○ ○ ○
NC(CO)(CO)CO [Working example 28] | ○ ○ ○ ○
NC(CO)(CO)CO [Working example 48] | ○ ○ ○ ○
